Here are results for eight compounds from patent US7052871B2, “Methods of improving transformation efficiency of plants with auxin responsive promoter sequences” (Pioneer Hi-Bred International, Inc., priority 2000, dated 2006).

Assay [1] has as its system ZmAxig1 mRNA in BMS (Black Mexican Sweet) maize cells. In words: Northern blot of mRNA from BMS cells cultured on auxin-containing medium, probed with SEQ ID No. 12. The assay is classed as cell-based, Zea mays. The conditions noted are these: BMS cultured cells (FIG. 4).
A further assay relates to ZmAxig1 mRNA. In words: Northern blot of mRNA from treated plants probed with SEQ ID No. 12 (CJLP181). The class given is in vivo, Zea mays. The conditions noted are these: for hybridization of SEQ ID No. 12 probe with mRNA from anther or entire aerial portion of treated plants: anther or entire aerial portion of treated plants (FIG. 4).
The subject of assay [2] is male fertility of pZmAxig1:Ms45 plants. Nature of the assay: Fertility restoration in ms45 male sterile maize plants transformed with V2 (pZmAxig1:Ms45). The class given is in vivo, Zea mays. An excerpt:
A second DNA plasmid was constructed by combining the ZmAxig1 promoter (1306 bases 5′ of start codon; SEQ ID NO: 16) with the Ms45 coding sequence and 35S:PAT in a T-DNA vector. This plasmid was cointegrated with Japan Tobacco plasmid pSB1 to create a second suitable vector, V2.
Maize GS3Ms45EX4 embryos, segregating for homozygous ms45 (male sterile) and Ms45/ms45 (male fertile) genotypes, were transformed with the first and second vectors using Agrobacterium.
Transformed cell lines homozygous for the ms45 male sterile genotype were screened by quantitative PCR screening and advanced for regeneration into plants. Positive lines were transferred to 289B medium, an MS-based medium containing bialaphos and carbenicillin, with lower sucrose and hormone levels, to initiate plant regeneration. Following somatic embryo maturation (2–3 weeks), well-developed somatic embryos were transferred to medium for germination and transferred to the lighted culture room. Approximately 7 days later, developing plantlets were transferred to medium in tubes for 7 days until plantlets were well established. Plants were then transferred to inserts in flats (equivalent to 2.5″ pot) containing potting soil and grown for one week in a growth chamber, subsequently grown an additional 1–2 weeks in the greenhouse, then transferred to classic 600 pots (1.6 gallon) and grown to maturity.
From each of 20 independent callus lines transformed with V2, six regenerated plants were grown in the greenhouse. […] The plants were scored for fertility after tassels emerged.

Assay [3] concerns ZmAxig1 expression in anthers. Here is the method:
Progeny of transgenic maize plants, hemizygous for the maize anther-preferred promoter 5126 (U.S. Pat. Nos. 5,689,049 and 5,689,051) driving DAM methylase linked with 35S:PAT (p5126:DAM/35S:PAT), were grown in the greenhouse. Expression of p5126:DAM is known to ablate the tapetum prior to the quartet stage of microspore development, which results in male sterile plants.
Plants segregating for male fertile/glufosinate-ammonium susceptible phenotype (wild-type) or for male sterile/glufosinate-ammonium resistant phenotype (p5126:DAM/35S:PAT), were treated with a dicamba soil drench as described above, or were not treated. Quartet/early-uninucleate stage anthers were harvested from these plants and mRNA was isolated with the QuickPrep® Micro mRNA purification kit (Amersham Pharmacia, Piscataway, N.J.) according to the manufacturer's instructions.
(§1) Quartet/early-uninucleate stage anthers from dicamba-treated or non-treated plants were harvested and embedded for in situ hybridization or frozen for mRNA isolation as described above.

Assay [4] concerns ZmAxig1 transcripts in the tapetum. The following applies: treated plants (FIG. 7).
Description: as §1

Assay [5] has as its system cDNA fragments (w0h051.7, ZmAxig1). The following applies: anthers; two daily soil drenches of 12 μl dicamba formulation in 450 ml water. An excerpt:
Anthers containing microsporocytes at meiosis […] through early uninucleate stages of development were harvested on the third day and frozen. Anthers containing microsporocytes at prophase through early uninucleate stages of development were harvested from non-treated plants. Frozen tissues were ground and total RNA extracted with Tripure™ isolation reagent (Boehringer Mannheim, Indianapolis, Ind.) according to the manufacturer's instructions.
RNA isolated from anthers of three dicamba-treated plants and three non-treated plants was sent to laboratories of CuraGen Corporation (New Haven, Conn.) for quantitative expression profiling. […] (FIG. 3)

Consider `O=C(O)COc1ccc(Cl)cc1Cl` [2,4-D, 2,4-dichlorophenoxyacetic acid], for which, in assay [1], the “hybridization of SEQ ID No. 12 probe with mRNA from BMS maize cultured on medium containing the auxin” value is given as “hybridized”.

Take `NC(=O)NS(=O)(=O)c1ccccc1Cl` [CBSU]: the “hybridization of SEQ ID No. 12 probe with mRNA from anther or entire aerial portion of treated plants” value with ZmAxig1 mRNA is listed as “did not hybridize”.

Regarding `CC1=C(C(=O)Nc2ccccc2)SCCO1` [Carboxin], the “hybridization of SEQ ID No. 12 probe with mRNA from anther or entire aerial portion of treated plants” value in the assay with ZmAxig1 mRNA is given as “did not hybridize”.

Turning to `C=CCN(CC=C)C(=O)C(Cl)Cl` [Dichlormid], the “hybridization of SEQ ID No. 12 probe with mRNA from anther or entire aerial portion of treated plants” value in the assay with ZmAxig1 mRNA was “did not hybridize”.

Consider `CN(C)C(=O)Nc1ccc(Cl)c(Cl)c1` [Diuron], for which the “hybridization of SEQ ID No. 12 probe with mRNA from anther or entire aerial portion of treated plants” value in the assay with ZmAxig1 mRNA is listed as “did not hybridize”.

`COCC(=O)N(c1c(C)cccc1C)C(C)C(=O)OC` (stereo not shown) [Metalaxyl]: the “hybridization of SEQ ID No. 12 probe with mRNA from anther or entire aerial portion of treated plants” value in the assay with ZmAxig1 mRNA is “did not hybridize”.

Consider `O=C(O)c1nc(Cl)ccc1Cl` [clopyralid], for which the “plants showing partial to complete male fertile phenotypes, foliar application” value in assay [2] (10 μl clopyralid formulation, foliar application with 1 ml water, homozygous ms45 V2 progeny) was “Two of five”. The “plants showing partial to complete male fertile phenotypes, soil drench application” value in assay [2] (10 μl clopyralid formulation, soil drench with 200 ml water, homozygous ms45 V2 progeny) is given as “three of six”.

For `COc1c(Cl)ccc(Cl)c1C(=O)O` [dicamba], in assay [3] (quartet/early-uninucleate stage anthers), the “ZmAxig1 expression in anthers of treated plants (Northern blot)” value was “induced”. Also, in assay [3] (soil drench, quartet/early-uninucleate stage anthers (FIG. 6)), the “induction of ZmAxig1 expression in anthers from wild-type male fertile plants” value is “induced expression of ZmAxig1”. Moreover, the “induction of ZmAxig1 expression in anthers from male sterile p5126:DAM/35S:PAT plants” value in assay [3] (soil drench, tapetum-ablated male sterile plants (FIG. 6)) is given as “not in anthers from male sterile plants”. Also, in assay [2] (of 81 treated V2 plants), the “plants with fertile phenotype” value was found to be 33 plants and the “plants with shedder (partially fertile) phenotype” value came to 36 plants. Besides, in assay [2] (of 81 treated V2 plants, daily soil drench 3 μl dicamba formulation, one to three days), the “plants that produced anthers with pollen” value is 69 plants. Also, the “viability of pollen from treated plants” value in assay [2] (pollen from 9 treated plants used to pollinate non-transformed ears, kernels germinated) was “viable”. Moreover, the “in situ hybridization of ZmAxig1 antisense RNA probe to RNA in tapetum of anthers and microspores” value in assay [4] was “strong in situ hybridization”. In addition, the “hybridization of SEQ ID No. 12 probe with mRNA from anthers of treated plants” value in the assay on ZmAxig1 mRNA (anthers, northern blot (FIG. 3)) is “hybridized very strongly”. The “hybridization of SEQ ID No. 12 probe with mRNA from tassel or whorl leaf of treated plants” value in the assay on ZmAxig1 mRNA (tassel or whorl leaf, northern blot (FIG. 3)) is on record as “to a lesser degree”. In addition, the “expression level of induced cDNA fragments relative to the control” value in assay [5] is “greater than 2.5 fold”.
